# In patent US20080269052A1, “USE of PYRIDINE-2-OXY-3-CARBOXAMIDES AS SAFENERS” (priority 2007, published 2008):
# Columns and labels:
# Format in all cases: in vivo
# [1] = test system: economically important harmful plants (weed grases and broad-leaved weeds); test: Pre-emergence herbicide action against harmful plants in the presence of safener; conditions: in combination with safener
# Description: (§1) The damage to the plants is scored visually using a scale of 0-100%, in comparison to control plants: 0%=no noticeable effect compared to the untreated plant 100%=the treated plants dies. Seeds or rhizome pieces of monocotyledonous and dicotyledonous weed plants and crop plants were placed in sandy loam soil in plastic pots and covered with soil. The herbicide/safener active compound combinations according to the invention, formulated as water-soluble powders or suspensions, and in parallel tests the individual active compounds formulated in a corresponding manner, were then, at various dosages at a water application rate of 300 to 800 l/ha (converted), applied to the surface of the covering soil. After the treatment, the pots were placed in the greenhouse and kept under good growth conditions for the weeds and the crop plants. Visual scoring of the plant damage or emergence damage was carried out after the test plants had emerged after a test period of 2 to 4 weeks, in comparison to untreated controls.
# [2] = test system: Zea mays (corn); test: Seed treatment with safeners, corn; conditions: ZEAMX
# Description: (§2) The damage to the plants is scored visually using a scale of 0-100%, in comparison to control plants: 0%=no noticeable effect compared to the untreated plant 100%=the treated plants dies. Seeds of crop plants were mixed in bottles with the safeners according to the invention, formulated as suspension or emulsion concentrates, and water, and the mixture was shaken well so that the seeds were coated evenly with the formulation of the safener in question. The seeds or the emerged plants were then tested with herbicides in the pre- or post-emergence method according to the tests of examples 3.3 and 3.2, respectively.
# [3] = test system: economically important harmful plants (weed grases and broad-leaved weeds); test: Post-emergence herbicide action against harmful plants in the presence of safener; conditions: in combination with safener
# Description: (§3) The damage to the plants is scored visually using a scale of 0-100%, in comparison to control plants: 0%=no noticeable effect compared to the untreated plant 100%=the treated plants dies. Seeds or rhizome pieces of monocotyledonous and dicotyledonous harmful plants and crop plants are placed in sandy loam soil in plastic pots, covered with soil and cultivated in the greenhouse under good growth conditions. Alternatively, harmful plants encountered in paddy rice cultivation are cultivated in pots in which the surface of the soil is covered by up to 2 cm of water. Ten to twenty days after sowing, the test plants are treated at the one to three-leaf stage. The herbicide/safener active compound combinations according to the invention, formulated as water-soluble powders or suspensions, and in parallel tests the individual active compounds formulated in a corresponding manner, are sprayed at various dosages at a water application rate of 300 l/ha (converted) onto the green parts of the plants, and, after the test plants were left to stand in the greenhouse for about 2 to 3 weeks under optimum growth conditions, the effect of the preparations is scored visually in comparison to untreated controls. In the case of rice or harmful plants encountered in the cultivation of rice, the active compounds are also added directly to the irrigation water (application analogously to the so-called granule application) or sprayed onto the plants and into the irrigation water.
# [4] = test system: Zea mays (corn); test: Pre-emergence herbicide action and safener action, corn; conditions: ZEAMX
# Description: as §1
# [5] = test system: Hordeum vulgare (barley); test: Post-emergence herbicide action and safener action, barley; conditions: safener (Ia) 100 g of AS/ha, HORVU
# Description: as §3
# [6] = test system: Oryza sativa (rice); test: Post-emergence herbicide action and safener action, rice; conditions: ORYSA
# Description: as §3
# [7] = test system: Triticum aestivum (spring wheat); test: Post-emergence herbicide action and safener action, spring wheat; conditions: TRZAS
# Description: as §3
# [8] = test system: Zea mays (corn); test: Post-emergence herbicide action and safener action, corn; conditions: safener (Ia) 50 g of AS/ha, ZEAMX
# Description: as §3
# [9] = test system: Hordeum vulgare (barley); test: Seed treatment with safeners, barley; conditions: HORVU
# Description: as §2
# [10] = test system: Oryza sativa (rice); test: Pre-emergence herbicide action and safener action, rice; conditions: herbicide (2.2.16) oxadiazon 400 g of AS/ha, safener (Ia) 75 g of AS/ha, ORYSA
# Description: as §1
# [11] = test system: Triticum aestivum (spring wheat); test: Seed treatment with safeners, spring wheat; conditions: safener (Ia) 1.0 g of AS/kg seed, TRZAS
# Description: as §2
# [12] = herbicide (1.2.1.58) thiencarbazone-methyl 15 g of AS/ha
smiles,measurement,setting,value
"NC(=O)c1ccc(C(F)(F)F)[nH]c1=O [safener (Ia), 2-oxo-6-trifluoromethyl-1,2-dihydropyridine-3-carboxamide]",action of the respective herbicide against economically important harmful plants,[1],"not, or not substantially, adversely affected"
same,Reduction of the harmful effect,"[2]; herbicide (1.1.1.22) isoxaflutole 200 g of AS/ha, safener (Ia) 0.5 g of AS/kg seed",category A (category A = 50-100% reduction of the harmful action)
same,Reduction of the harmful effect,"[2]; herbicide (1.2.1.58) thiencarbazone-methyl 5 g of AS/ha, safener (Ia) 1.0 g of AS/kg seed",category A (category A = 50-100% reduction of the harmful action)
same,action of the herbicide against economically important harmful plants,[3],"not, or not substantially, adversely affected"
same,Reduction of the harmful effect,"[4]; herbicide (1.1.1.22) isoxaflutole 300 g of AS/ha, safener (Ia) 300 g of AS/ha",category A (category A = 50-100% reduction of the harmful action)
same,Reduction of the harmful effect,"[4]; herbicide (1.4.4.17) flufenacet 125 g of AS/ha, safener (Ia) 150 g of AS/ha",category A (category A = 50-100% reduction of the harmful action)
same,Reduction of the harmful effect,[5]; herbicide (1.1.1.10) tembotrione 20 g of AS/ha,category A (category A = 50-100% reduction of the harmful action)
same,Reduction of the harmful effect,[5]; [12],category A (category A = 50-100% reduction of the harmful action)
same,Reduction of the harmful effect,[5]; herbicide (1.3.1.20c) fenoxaprop-P-ethyl 400 g of AS/ha,category A (category A = 50-100% reduction of the harmful action)
same,Reduction of the harmful effect,"[6]; herbicide (1.1.1.4) mesotrione 400 g of AS/ha, safener (Ia) 75 g of AS/ha",category A (category A = 50-100% reduction of the harmful action)
same,Reduction of the harmful effect,"[6]; herbicide (1.1.1.4) mesotrione 600 g of AS/ha, applied to the water around the test plants (paddy rice conditions), safener (Ia) 75 g of AS/ha",category A (category A = 50-100% reduction of the harmful action)
same,Reduction of the harmful effect,"[6]; herbicide (1.2.1.15) foramsulfuron 15 g of AS/ha, safener (Ia) 100 g of AS/ha",category B (category B = 20-49% reduction of the harmful action)
same,Reduction of the harmful effect,"[6]; herbicide (1.2.1.58) thiencarbazone-methyl 10 g of AS/ha, safener (Ia) 300 g of AS/ha",category A (category A = 50-100% reduction of the harmful action)
same,Reduction of the harmful effect,"[6]; herbicide (1.2.1.62b) bispyribac-sodium 200 g of AS/ha, safener (Ia) 75 g of AS/ha",category A (category A = 50-100% reduction of the harmful action)
same,Reduction of the harmful effect,"[6]; herbicide (1.3.1.20c) fenoxaprop-P-ethyl 100 g of AS/ha, safener (Ia) 300 g of AS/ha",category A (category A = 50-100% reduction of the harmful action)
same,Reduction of the harmful effect,"[6]; herbicides (1.2.1.14) mesosulfuron-methyl + (1.2.1.11b) iodosulfuron-methyl-sodium 4 + 0.8 g of AS/ha, safener (Ia) 150 g of AS/ha",category A (category A = 50-100% reduction of the harmful action)
same,Reduction of the harmful effect,"[7]; herbicide (1.1.1.10) tembotrione 20 g of AS/ha, safener (Ia) 80 g of AS/ha",category A (category A = 50-100% reduction of the harmful action)
same,Reduction of the harmful effect,"[7]; herbicide (1.1.2.10) picolinafen 200 g of AS/ha, safener (Ia) 100 g of AS/ha",category A (category A = 50-100% reduction of the harmful action)
same,Reduction of the harmful effect,"[7]; herbicide (1.2.1.14) mesosulfuron-methyl 40 g of AS/ha, safener (Ia) 80 g of AS/ha",category A (category A = 50-100% reduction of the harmful action)
same,Reduction of the harmful effect,"[7]; herbicide (1.2.1.58) thiencarbazone-methyl 15 g of AS/ha, safener (Ia) 100 g of AS/ha",category A (category A = 50-100% reduction of the harmful action)
same,Reduction of the harmful effect,"[7]; herbicide (1.3.1.20c) fenoxaprop-P-ethyl 100 g of AS/ha, safener (Ia) 20 g of AS/ha",category A (category A = 50-100% reduction of the harmful action)
same,Reduction of the harmful effect,"[7]; herbicide (2.2.12) flumioxazin 100 g of AS/ha, safener (Ia) 50 g of AS/ha",category B (category B = 20-49% reduction of the harmful action)
same,Reduction of the harmful effect,[8]; herbicide (1.2.1.11b) iodosulfuron-methyl-sodium 100 g of AS/ha,category B (category B = 20-49% reduction of the harmful action)
same,Reduction of the harmful effect,[8]; herbicide (1.2.1.48) imazethapyr 100 g of AS/ha,category A (category A = 50-100% reduction of the harmful action)
same,Reduction of the harmful effect,[8]; herbicide (2.2.12) flumioxazin 50 g of AS/ha,category A (category A = 50-100% reduction of the harmful action)
same,Reduction of the harmful effect,"[9]; herbicide (1.2.1.14) mesosulfuron-methyl 30 g of AS/ha, safener (Ia) 0.5 g of AS/kg seed",category A (category A = 50-100% reduction of the harmful action)
same,Reduction of the harmful effect,"[9]; herbicide (1.2.1.58) thiencarbazone-methyl 15 g of AS/ha, safener (Ia) 1.0 g of AS/kg seed",category A (category A = 50-100% reduction of the harmful action)
same,Reduction of the harmful effect,[10],category B (category B = 20-49% reduction of the harmful action)
same,Reduction of the harmful effect,[11]; herbicide (1.2.1.14) mesosulfuron-methyl 30 g of AS/ha,category A (category A = 50-100% reduction of the harmful action)
same,Reduction of the harmful effect,[11]; [12],category A (category A = 50-100% reduction of the harmful action)
"NC(=O)c1ccc(C(F)(F)Cl)[nH]c1=O [safener (Ib), 2-oxo-6-difluorochloromethyl-1,2-dihydropyridine-3-carboxamide]",action of the respective herbicide against economically important harmful plants,[1],"not, or not substantially, adversely affected"
same,action of the herbicide against economically important harmful plants,[3],"not, or not substantially, adversely affected"
"NC(=O)c1ccc(C(F)F)nc1O [safener (Ic), 2-oxo-6-difluoromethyl-1,2-dihydropyridine-3-carboxamide]",action of the respective herbicide against economically important harmful plants,[1],"not, or not substantially, adversely affected"
same,action of the herbicide against economically important harmful plants,[3],"not, or not substantially, adversely affected"
